Data as given in the supplement of paper PMC10307832.

Key:
Experiment in all cases: relative viability (nuclei count vs DMSO), 5 days (fraction); higher = more cells survive
NCI-H2087 = tested on: NCI-H2087
How it was run: (§1)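 After 5 days of treatment, lung cancer cells in 1536-well plates were fixed and stained in a single step (final 0.05% Triton X-100, 1% formaldehyde, 1 ug/ml Hoechst) and their nuclei counted on 4× images. Treatment had been applied by pin tool the day after seeding as one drug alone or as a fixed anchor-drug dose with five library-drug doses (not always all listed) in √10 steps. Relative viability is the nuclei count of treated wells divided by that of vehicle wells, and values are medians of duplicate plates.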

COR-L 105 = tested on: COR-L 105
How it was run: as §1

NCI-H1437 = tested on: NCI-H1437
How it was run: as §1

LOU-NH91 = tested on: LOU-NH91
How it was run: as §1

NCI-H2085 = tested on: NCI-H2085
How it was run: as §1

H3255 = tested on: H3255
How it was run: as §1

HOP-62 = tested on: HOP-62
How it was run: as §1

201T = tested on: 201T
How it was run: as §1

NCI-H358 = tested on: NCI-H358
How it was run: as §1

SW 1573 = tested on: SW 1573
How it was run: as §1

HCC-827 = tested on: HCC-827
How it was run: as §1

PC-3 [JPC-3] = tested on: PC-3 [JPC-3]
How it was run: as §1

Clc1ccc(Nc2nnc(Cc3ccncc3)c3ccccc23)cc1 [Vatalanib] + Cc1nc(Nc2ncc(C(=O)Nc3c(C)cccc3Cl)s2)cc(N2CCN(CCO)CC2)n1 [Dasatinib] (partner 0.075 µM)
relative viability (NCI-H2087; first compound 0.4 µM): 1.09 | relative viability (NCI-H2087; first compound 1.265 µM): 0.808 | relative viability (NCI-H2087; first compound 4 µM): 0.884 | relative viability (COR-L 105; first compound 0.04 µM): 0.294 | relative viability (COR-L 105; first compound 0.1265 µM): 0.32 | relative viability (COR-L 105; first compound 0.4 µM): 0.404 | relative viability (COR-L 105; first compound 1.265 µM): 0.316 | relative viability (COR-L 105; first compound 4 µM): 0.326 | relative viability (NCI-H1437; first compound 0.04 µM): 0.399 | relative viability (NCI-H1437; first compound 0.1265 µM): 0.41 | relative viability (NCI-H1437; first compound 0.4 µM): 0.286 | relative viability (NCI-H1437; first compound 1.265 µM): 0.349 | relative viability (NCI-H1437; first compound 4 µM): 0.417 | relative viability (LOU-NH91; first compound 0.04 µM): 0.563 | relative viability (LOU-NH91; first compound 0.1265 µM): 0.534 | relative viability (LOU-NH91; first compound 1.265 µM): 0.514 | relative viability (LOU-NH91; first compound 4 µM): 0.509 | relative viability (NCI-H2085; first compound 0.04 µM): 0.218 | relative viability (NCI-H2085; first compound 0.1265 µM): 0.226 | relative viability (NCI-H2085; first compound 0.4 µM): 0.277 | relative viability (NCI-H2085; first compound 1.265 µM): 0.188 | relative viability (NCI-H2085; first compound 4 µM): 0.258 | relative viability (H3255; first compound 0.04 µM): 0.316 | relative viability (H3255; first compound 0.1265 µM): 0.385 | relative viability (H3255; first compound 0.4 µM): 0.311 | relative viability (H3255; first compound 1.265 µM): 0.28 | relative viability (H3255; first compound 4 µM): 0.335 | relative viability (HOP-62; first compound 0.04 µM): 0.786 | relative viability (HOP-62; first compound 0.1265 µM): 0.563 | relative viability (HOP-62; first compound 0.4 µM): 0.712 | relative viability (HOP-62; first compound 1.265 µM): 0.635 | relative viability (HOP-62; first compound 4 µM): 0.602 | relative viability (201T; first compound 0.04 µM): 0.576 | relative viability (201T; first compound 0.1265 µM): 0.564 | relative viability (201T; first compound 0.4 µM): 0.594 | relative viability (201T; first compound 1.265 µM): 0.555 | relative viability (201T; first compound 4 µM): 0.579 | relative viability (NCI-H358; first compound 0.04 µM): 0.164 | relative viability (NCI-H358; first compound 0.1265 µM): 0.194 | relative viability (NCI-H358; first compound 0.4 µM): 0.165 | relative viability (NCI-H358; first compound 1.265 µM): 0.162 | relative viability (NCI-H358; first compound 4 µM): 0.169 | relative viability (SW 1573; first compound 0.04 µM): 0.73 | relative viability (SW 1573; first compound 0.1265 µM): 0.496 | relative viability (SW 1573; first compound 0.4 µM): 0.645 | relative viability (SW 1573; first compound 1.265 µM): 0.395 | relative viability (SW 1573; first compound 4 µM): 0.476 | relative viability (HCC-827; first compound 0.04 µM): 0.375 | relative viability (HCC-827; first compound 0.1265 µM): 0.31 | relative viability (HCC-827; first compound 0.4 µM): 0.166 | relative viability (HCC-827; first compound 1.265 µM): 0.326 | relative viability (HCC-827; first compound 4 µM): 0.275 | relative viability (PC-3 [JPC-3]; first compound 0.04 µM): 0.949 | relative viability (PC-3 [JPC-3]; first compound 0.1265 µM): 0.982 | relative viability (PC-3 [JPC-3]; first compound 0.4 µM): 0.951 | relative viability (PC-3 [JPC-3]; first compound 1.265 µM): 0.913 | relative viability (PC-3 [JPC-3]; first compound 4 µM): 0.891
